According to patent publication US20090246249A1, “COATING COMPOSITIONS HAVING IMPROVED PERFORMANCE” (priority 2008, published 2009):
Square brackets hold non-standard residues; d marks the D form. Ends that are not written are not given here. * marks the point of attachment. Myristoyl = CCCCCCCCCCCCCC(=O)*; Lauroyl = CCCCCCCCCCCC(=O)*; linker = not defined here; Aun = NCCCCCCCCCCC(=O)O

How the values were obtained:
[1] = Critical micelle concentration (methyl orange assay); assay type: physicochemical; details: pH 7 PBS, methyl orange 0.04 mM, A484
Protocol: Formation of a composition of the invention, and evidence of macromolecular network formation, may be monitored or quantified by any means known in the art. In this example, macromolecular formation was detected using a standard assay for determining critical micelle concentration (“CMC”). In this assay, a solution containing the composition of the invention (in a range of concentrations in pH 7 phosphate buffered saline (“PBS”)) was mixed with a solution of methyl orange (0.04 mM in PBS), and the absorbance of the mixture was measured at 484 nm (A484). CMC is the concentration at which a sharp decrease in absorbance at A484 is observed, a change in the optical properties of methyl orange when trapped in a hydrophobic phase, such as caused by self-association as a macromolecular network (Table 7, “CMC”). Also included in this assay were an assay control peptide having an amino acid sequence of SEQ ID NO:122 (Table 7, “Control”), and compound 119 (a PEGylated peptide, the peptide having an amino acid sequence of SEQ ID NO:122, as described in more detail in Example 6 herein).

[2] = Retention of binding to metal bead after incubation in 10% BSA with 10 mM guanidinium chloride (mimics human plasma); details: 18 hour incubation in 10% BSA + 10 mM guanidinium chloride, 37° C.; comparator SEQ ID NO:122
Description: In this example, illustrated are unexpected beneficial properties of the composition of the invention, including but not limited to, one or more improved biophysical properties. Such one or more unexpected beneficial properties of a composition of the invention may comprise an increase in stability. An increase in stability may comprise any one or more of resistance to chemical denaturation, resistance to proteolytic degradation, improved retention to a substrate (e.g., resistance to being competed off a substrate to which it is bound, such as by proteins or other biomolecules found in body tissues). Thus, to ascertain a beneficial property of a composition of the invention, it is compared to the properties of a component of the composition-namely, a substrate-binding peptide by itself (e.g., without fatty acid covalently coupled thereto). An assay was developed that, from our direct comparisons (see, e.g., discussion of FIG. 2 below, and Example 7 herein), mimicked the effect of incubation of substrate-binding peptide with human plasma on stability of binding of a substrate-binding peptide to its substrate. The assay utilized incubations in the presence of 10% bovine serum album (BSA) with 10 mM guanidinium chloride. The high BSA concentration mimics the elevated albumin content of human plasma, and the guanidinium chloride is used to compete with any charged interactions involved in binding of the substrate-binding peptide to its substrate.
In this assay, two immunoassay plates were prepared for a “side-by-side” comparison of binding of a test sample (substrate-binding peptide or composition of the invention) to its substrate with or without the presence of 10% BSA with 10 mM guanidinium chloride. The wells of each 96-well polypropylene plate were incubated with 350 μl BSA 1% in PBS for 30 minutes at 20° C. with 500 rpm shaking. To each well was added one acetone-cleaned 3/32″ 316LVM stainless steel bead, followed by addition of dilutions in PBS of the test sample in a range of concentrations starting from 10 μM. Final volume in each well was 200 μl. The plates were incubated for 1 hour at 20° C. with 500 rpm shaking to allow for the binding to occur. The beads were washed 3 times with 250 μl PBS using a plate washer. […]
In the immunoassay for detecting binding without the presence of 10% BSA with 10 mM guanidinium chloride, added to each well was 200 μl of streptavidin AP (AP is alkaline phosphatase) at 1/200 in TBS+1% BSA. […] When color has developed, each well was read at OD405 nm in endpoint mode using a plate reader. […] When color has developed, the wells were read at OD405 nm in endpoint mode using a plate reader. […]

[3] = tested on: Staphylococcus aureus strain MZ100; experiment: Tibia pin assay: coated titanium pins with vancomycin, bacterial cfu count; assay type: cell-based; design: key: —: “−” means no cfus; “many” means too many cfus to count, as they converge into one spot; details: pin coated with test sample + vancomycin
Description: In this assay, titanium pins were used as a model for tibia pins. Briefly, sterile pins were first coated with biofunctional composition (“SEQ ID NO:124-linker-SEQ ID NO:122”) comprising a substrate-binding peptide having binding specificity for vancomycin (“SEQ ID NO:124”) linked to a substrate-binding peptide having binding specificity for metal (“SEQ ID NO:122”), or a composition of the invention formed from compound comprising the biofunctional composition covalently coupled to fatty acid. The respective coatings also include vancomycin bound thereto. The coated pins were then placed in a silicone tube containing liquid bacterial growth medium and inoculated with bacteria. After incubation, the pins were removed, and then the liquid growth medium was serially diluted. The serial dilutions were inoculated onto bacterial culture plates, the plates were incubated, and counted on the plates were bacterial colonies.
In this assay, test samples (biofunctional composition (Table 6, “BC”) or compositions 133, 134, 135, 136 139) each were used to coat a pin by incubating the test sample (in a range of from about 0.8 mM to about 1 mM) with 2.5 μl of a 10 mM vancomycin solution and PBS to a final volume of 250 μl in a microtube (3 pins per tube) for 60 minutes at room temperature with occasional agitation. In a piece of silicone tubing (1.5 mm inner diameter, 50 mm long), added is tryptic soy broth+0.2% glucose, the coated pin, and 103 colony forming units (cfu) of Staphylococcus aureus strain MZ100 in either a 20 μl inoculum, 40 μl inoculum, or 60 μl inoculum. The tubing is clamped closed, and the tubing is incubated for 37° C. for 3 hours. After 3 hours, serial dilutions (1:10, 1:100, 1:1000) were made of the culture media from each tubing, and 10 μl of the undiluted culture medium and of each dilution were spotted onto the bacterial culture plate. The bacterial culture plate was incubated overnight at 37° C., and then the cfus were counted. The results, a composite of different assay runs, are shown in Table 6 (“−” means no cfus; “many” means too many cfus to count, as they converge into one spot; “NT” means not tested).

With “119: Fmoc-NH-(PEG)27-CO2H covalently coupled to a peptide having the amino acid sequence of SEQ ID NO:122 (PEGylated peptide) (SSHRTNHKKNNPKKKNKTRGSSGK; also: Fmoc-NH-(PEG)27-CO2H coupled, site not given here) [Compound 119, reference compound]” the CMC [1] was >>10 μM and the “retention of binding of substrate-binding peptide component to its substrate, compared to substrate-binding peptide alone (FIG. 1)” value [2] was “failed to promote retention of binding”.
In the case of “120: amino acid sequence YWAWAYAW (SEQ ID NO:129) covalently coupled to a peptide having the amino acid sequence of SEQ ID NO:122 (YWAWAYAWSSHRTNHKKNNPKKKNKTRGSSGK) [Compound 120, reference compound]”, the “retention of binding of substrate-binding peptide component to its substrate, compared to substrate-binding peptide alone (FIG. 1)” value [2] is reported as “failed to promote retention of binding”.
With “AUD-AUD-AUD-AUD-SEQ ID NO:122 ([Aun][Aun][Aun][Aun]SSHRTNHKKNNPKKKNKTRGSSGK) [Compound 122]” the “retention of binding of substrate-binding peptide component to its substrate, compared to substrate-binding peptide alone (FIG. 1)” value [2] was “significantly improved retention of binding”.
For “AUD-AUD-K-AUD-AUD-AUD-AUD-SEQ ID NO:122 ([Aun][Aun]K[Aun][Aun][Aun][Aun]SSHRTNHKKNNPKKKNKTRGSSGK) [Compound 123]”, the CMC [1] was 0.04 µM and the “retention of binding of substrate-binding peptide component to its substrate, compared to substrate-binding peptide alone (FIG. 1)” value [2] was “significantly improved retention of binding”.
With “Ac-Y-AUD-AUD-AUD-AUD-AUD-AUD-SEQ ID NO:122 (Ac-Y[Aun][Aun][Aun][Aun][Aun][Aun]SSHRTNHKKNNPKKKNKTRGSSGK) [Compound 132]” the CMC [1] was 0.123 µM.
“LAU-SEQ ID NO:122 (Lauroyl-SSHRTNHKKNNPKKKNKTRGSSGK) [Compound 126]” gave a CMC [1] of 0.37 µM.
“MYR-SEQ ID NO:122 (Myristoyl-SSHRTNHKKNNPKKKNKTRGSSGK) [Compound 125]” showed a CMC [1] of 0.123 µM.
With “MYR-linker-SEQ ID NO:122 ({Myristoyl-linker}-SSHRTNHKKNNPKKKNKTRGSSGK; reading uncertain) [Compound 127]” the CMC [1] was 0.123 µM.
“PALM-PALM-PALM-linker-SEQ ID NO:122 (SSHRTNHKKNNPKKKNKTRGSSGK; also: three palmitoyl groups and linker, attachment not placed) [Compound 129]” gave a CMC [1] of 0.123 µM.
“SSHRTNHKKNNPKKKNKTRGSSGK [Compound 130, AUD-AUD-AUD-AUD-AUD-AUD-SEQ ID NO:122]” gave a CMC [1] of 0.041 µM.
For “SSHRTNHKKNNPKKKNKTRGSSGK [Compound 131, AUD-AUD-AUD-AUD-AUD-AUD-AUD-AUD-SEQ ID NO:122]”, the CMC [1] was 0.37 µM.
With “SSHRTNHKKNNPKKKNKTRGSSGK [SEQ ID NO:122]” the CMC ([1]; listed as Control) was >>10 μM.
For “SSSCLIDMYGVCHNFDGAYDSSRG [Compound 134, AUD-AUD-AUD-AUD-SEQ ID NO:124-linker-SEQ ID NO:122]”, the “cfu 1:10” value ([3]; 20 μl inoculum) was “—”, the “cfu 1:100” value ([3]; 20 μl inoculum) was “—” and the “cfu 1:1000” value ([3]; 20 μl inoculum) was “—”. For the same substance, the cfu undiluted ([3]; 20 μl inoculum, 103 colony forming units, 3 hours 37° C.) was “—”, the “cfu 1:10” value ([3]; 40 μl inoculum) was 6 cfu and the “cfu 1:100” value ([3]; 40 μl inoculum) was 1 cfu. The “cfu 1:1000” value ([3]; 40 μl inoculum) was “—”, the cfu undiluted ([3]; 40 μl inoculum) was “many” and the “cfu 1:10” value ([3]; 60 μl inoculum) was 17 cfu. The “cfu 1:100” value ([3]; 60 μl inoculum) was 5 cfu, the “cfu 1:1000” value ([3]; 60 μl inoculum) was “—” and the cfu undiluted ([3]; 60 μl inoculum) was “many”.
“[MYR]2-K-linker-SEQ ID NO:122 (SSHRTNHKKNNPKKKNKTRGSSGK; also: lysine bearing two myristoyl groups plus linker, attachment not placed) [Compound 128]” gave a CMC [1] of 0.123 µM.
